# Assay results reported in patent US8609669B2, “Potassium channel modulators” (AbbVie Inc., priority 2010, dated 2013).
# pEC50: −log10 of the molar value.
# Biological target: T1, KCNQ 2/3 channels (HEK293 cells stably expressing human KCNQ2 and KCNQ3 subunits) (Homo sapiens, UniProt O43525+O43526)
# T1 construct: expressed in transfected cells; host or cells: HEK293
# Assay: KCNQ2/3 channel activation, thallium flux FLIPR assay (BTC-AM dye)
# Assay type: cell-based
# Conditions: for Emax: HEK293, maximum response relative to response of retigabine at 10 μM (set at 100%), read-out: Max. %; for pEC50: HEK293 cells expressing human KCNQ2 and KCNQ3, FLIPR thallium flux
# How it was run: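 HEK293 cells stably expressing human KCNQ2/KCNQ3 were loaded with BTC-AM and exposed to compound for 4 min in pH 7.3 gluconate buffer with ouabain. Thallium flux was triggered with 6 mM TlNO3 and 10 mM K2SO4 (stock additions) and fluorescence (ex 488, em 540 nm) recorded for 3 min. EC50 came from responses over baseline; maximal response is relative to 10 μM retigabine (100%).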
Compound,Emax [%],pEC50
"CC(C)(C)c1c(NC(=O)CCC2CCCCC2)nn2cccnc12 [Example 132, N-(3-tert-butylpyrazolo[1,5-a]pyrimidin-2-yl)-3-cyclohexylpropanamide]",142,> 7.00
"O=C(CCC1CCCC1)Nc1nn2cccnc2c1-c1cccc(Cl)c1 [Example 56, N-[3-(3-chlorophenyl)pyrazolo[1,5-a]pyrimidin-2-yl]-3-cyclopentylpropanamide]",98,6.30 to 7.00
"Cc1cnc2c(-c3ccc(C)c(Cl)c3)c(NC(=O)Cc3ccc(F)cc3)nn2c1 [Example 72, N-[3-(3-chloro-4-methylphenyl)-6-methylpyrazolo[1,5-a]pyrimidin-2-yl]-2-(4-fluorophenyl)acetamide]",247,6.30 to 7.00
"CC(C)(C)c1c(NC(=O)C[C@@H]2CC[C@H]3C[C@@H]2C3(C)C)nn2cccnc12 [Example 171, N-(3-tert-butylpyrazolo[1,5-a]pyrimidin-2-yl)-2-[(1S,2S,5S)-6,6-dimethylbicyclo[3.1.1]hept-2-yl]acetamide]",138,> 7.00
"CC(C)(C)Cc1c(NC(=O)CCC2CCCCC2)nn2cccnc12 [Example 11, 3-cyclohexyl-N-[3-(2,2-dimethylpropyl)pyrazolo[1,5-a]pyrimidin-2-yl]propanamide]",194,> 7.00
"Cc1cnc2c(-c3ccc(F)c(C)c3)c(NC(=O)CS(=O)(=O)C3CCCC3)nn2c1 [Example 174, 2-(cyclopentylsulfonyl)-N-[3-(4-fluoro-3-methylphenyl)-6-methylpyrazolo[1,5-a]pyrimidin-2-yl]acetamide]",67,< 5.00
"Cc1ccnc2c(-c3ccc(C(F)(F)F)cc3)c(NC(=O)CCC3CCCCC3)nn12 [Example 79, 3-cyclohexyl-N-{7-methyl-3-[4-(trifluoromethyl)phenyl]pyrazolo[1,5-a]pyrimidin-2-yl}propanamide]",122,6.30 to 7.00
"Cc1cnc2c(-c3ccc(C(F)(F)F)cc3)c(NC(=O)CCc3ccccc3)nn2c1 [Example 59, N-{6-methyl-3-[4-(trifluoromethyl)phenyl]pyrazolo[1,5-a]pyrimidin-2-yl}-3-phenylpropanamide]",123,6.30 to 7.00
"CCC1(c2c(NC(=O)CC3CC4CCC3C4)nn3cccnc23)CCCCC1 (racemic) [Example 146, (±)-exo-2-bicyclo[2.2.1]hept-2-yl-N-[3-(1-ethylcyclohexyl)pyrazolo[1,5-a]pyrimidin-2-yl]acetamide]",151,6.00 to 6.30
"Cc1cnc2c(-c3cccc(Cl)c3)c(NC(=O)CC(C)(C)C)nn2c1 [Example 51, N-[3-(3-chlorophenyl)-6-methylpyrazolo[1,5-a]pyrimidin-2-yl]-3,3-dimethylbutanamide]",73,5.00 to 6.00
"Cc1ccc(-c2c(NC(=O)CC(C)(C)C)nn3c(C)ccnc23)cc1F [Example 12, N-[3-(3-fluoro-4-methylphenyl)-7-methylpyrazolo[1,5-a]pyrimidin-2-yl]-3,3-dimethylbutanamide]",101,5.00 to 6.00
"Cc1cc(C)n2nc(NC(=O)CC3CCCCC3)c(-c3cccc(F)c3)c2n1 [Example 86, 2-cyclohexyl-N-[3-(3-fluorophenyl)-5,7-dimethylpyrazolo[1,5-a]pyrimidin-2-yl]acetamide]",138,> 7.00
"Cc1cc(C)n2nc(NC(=O)CCC3CCCC3)c(-c3ccc(C(F)(F)F)cc3)c2n1 [Example 61, 3-cyclopentyl-N-{5,7-dimethyl-3-[4-(trifluoromethyl)phenyl]pyrazolo[1,5-a]pyrimidin-2-yl}propanamide]",152,6.30 to 7.00
"COc1cccc(CC(=O)Nc2nn3c(C)cc(C)nc3c2-c2cccc(Cl)c2)c1 [Example 54, N-[3-(3-chlorophenyl)-5,7-dimethylpyrazolo[1,5-a]pyrimidin-2-yl]-2-(3-methoxyphenyl)acetamide]",67,5.00 to 6.00
"Cc1cc(C)n2nc(NC(=O)CCC3CCCC3)c(-c3ccc(Cl)cc3)c2n1 [Example 43, N-[3-(4-chlorophenyl)-5,7-dimethylpyrazolo[1,5-a]pyrimidin-2-yl]-3-cyclopentylpropanamide]",157,> 7.00
"CC(C)(C)c1c(NC(=O)CC2CCc3ccccc32)nn2cccnc12 (racemic) [Example 172, (±)-N-(3-tert-butylpyrazolo[1,5-a]pyrimidin-2-yl)-2-(2,3-dihydro-1H-inden-1-yl)acetamide]",20,< 5.00
"Cc1ccc(/C=C/c2c(NC(=O)CC(C)(C)C)nn3cccnc23)cn1 [Example 115, 3,3-dimethyl-N-{3-[(E)-2-(6-methylpyridin-3-yl)vinyl]pyrazolo[1,5-a]pyrimidin-2-yl}butanamide]",10,< 5.00
"Cc1cc(C)n2nc(NC(=O)CCC3CC3)c(-c3ccc(Cl)c(C)c3)c2n1 [Example 114, N-[3-(4-chloro-3-methylphenyl)-5,7-dimethylpyrazolo[1,5-a]pyrimidin-2-yl]-3-cyclopropylpropanamide]",119,6.30 to 7.00
"COc1ccc(CC(=O)Nc2nn3cc(C)cnc3c2-c2cccc(Cl)c2)cc1 [Example 50, N-[3-(3-chlorophenyl)-6-methylpyrazolo[1,5-a]pyrimidin-2-yl]-2-(4-methoxyphenyl)acetamide]",100,5.00 to 6.00
"CC(C)(C)c1c(NC(=O)CC2CCCCC2)nn2cccnc12 [Example 130, N-(3-tert-butylpyrazolo[1,5-a]pyrimidin-2-yl)-2-cyclohexylacetamide]",131,6.30 to 7.00
"Cc1cc(C)n2nc(NC(=O)CCc3ccccc3)c(-c3ccc(Cl)c(C)c3)c2n1 [Example 47, N-[3-(4-chloro-3-methylphenyl)-5,7-dimethylpyrazolo[1,5-a]pyrimidin-2-yl]-3-phenylpropanamide]",125,6.30 to 7.00
"CC(C)(C)c1c(NC(=O)CC2(C)CCc3ccccc32)nn2cccnc12 (racemic) [Example 131, (±)-N-(3-tert-butylpyrazolo[1,5-a]pyrimidin-2-yl)-2-(1-methyl-2,3-dihydro-1H-inden-1-yl)acetamide]",97,5.00 to 6.00
"Cc1cc(C)n2nc(NC(=O)CC3CCCCC3)c(-c3ccc(Cl)cc3)c2n1 [Example 42, N-[3-(4-chlorophenyl)-5,7-dimethylpyrazolo[1,5-a]pyrimidin-2-yl]-2-cyclohexylacetamide]",142,6.30 to 7.00
"COC(=O)c1c(NC(=O)CCC2CCCC2)nn2cccnc12 [Example 125, methyl 2-[(3-cyclopentylpropanoyl)amino]pyrazolo[1,5-a]pyrimidine-3-carboxylate]",8,< 5.00

# The remaining lines, values ahead:
Emax [%],pEC50,Compound
195,5.00 to 6.00,"CC(C)(C)c1c(NC(=O)Cc2ccccc2)nn2cccnc12 [Example 137, N-(3-tert-butylpyrazolo[1,5-a]pyrimidin-2-yl)-2-phenylacetamide]"
148,> 7.00,"Cc1ccnc2c(-c3ccc(OC(F)(F)F)cc3)c(NC(=O)CC3CC4CCC3C4)nn12 (racemic) [Example 160, (±)-exo-2-bicyclo[2.2.1]hept-2-yl-N-{7-methyl-3-[4-(trifluoromethoxy)phenyl]pyrazolo[1,5-a]pyrimidin-2-yl}acetamide]"
152,5.00 to 6.00,"O=C(CC12CC3CC(CC(C3)C1)C2)Nc1nn2cccnc2c1-c1ccc(OC(F)(F)F)cc1 [Example 142, 2-(adamantan-1-yl)-N-{3-[4-(trifluoromethoxy)phenyl]pyrazolo[1,5-a]pyrimidin-2-yl}acetamide]"
59,< 5.00,"CC(C)(C)CC(=O)Nc1nn2cccnc2c1/C=C/c1ccc(Cl)cc1 [Example 111, N-{3-[(E)-2-(4-chlorophenyl)vinyl]pyrazolo[1,5-a]pyrimidin-2-yl}-3,3-dimethylbutanamide]"
20,< 5.00,"CC(C)(C)OC(=O)Nc1nn2cccnc2c1-c1ccc(OC(F)(F)F)cc1 [Example 148, tert-butyl {3-[4-(trifluoromethoxy)phenyl]pyrazolo[1,5-a]pyrimidin-2-yl}carbamate]"
133,6.30 to 7.00,"CC(C)(C)c1c(NC(=O)CC(C)(C)c2ccccc2)nn2cccnc12 [Example 126, N-(3-tert-butylpyrazolo[1,5-a]pyrimidin-2-yl)-3-methyl-3-phenylbutanamide]"
7,< 5.00,"COc1ncc(-c2c(NC(=O)Cc3ccc(F)cc3)nn3cccnc23)cn1 [Example 181, 2-(4-fluorophenyl)-N-[3-(2-methoxypyrimidin-5-yl)pyrazolo[1,5-a]pyrimidin-2-yl]acetamide]"
11,< 5.00,"COc1cc(CC(=O)Nc2nn3cccnc3c2-c2cccc(F)c2)cc(OC)c1 [Example 138, 2-(3,5-dimethoxyphenyl)-N-[3-(3-fluorophenyl)pyrazolo[1,5-a]pyrimidin-2-yl]acetamide]"
96,5.00 to 6.00,"CC(C)(CC(=O)Nc1nn2cccnc2c1-c1cccc(F)c1)c1ccccc1 [Example 128, N-[3-(3-fluorophenyl)pyrazolo[1,5-a]pyrimidin-2-yl]-3-methyl-3-phenylbutanamide]"
143,6.30 to 7.00,"O=C(CC1CC2CCC1C2)Nc1nn2cccnc2c1-c1ccc(Cl)cc1 (racemic) [Example 158, (±)-exo-2-bicyclo[2.2.1]hept-2-yl-N-[3-(4-chlorophenyl)pyrazolo[1,5-a]pyrimidin-2-yl]acetamide]"
139,5.00 to 6.00,"Cc1ccnc2c(-c3ccc(Cl)cc3)c(NC(=O)CC(C)(C)C)nn12 [Example 40, N-[3-(4-chlorophenyl)-7-methylpyrazolo[1,5-a]pyrimidin-2-yl]-3,3-dimethylbutanamide]"
